This note sets out measurements from patent US11453703B2, “Heterotandem bicyclic peptide complexes” (BicycleTX Limited, priority 2018, dated 2022).

Starred links: 1 amine or outer side, 2 acyl side, 3 side chain; linkers in the order of their positions; H or OH if unused. Positions of bridges follow the written chain, without caps; N, C: chain ends. Non-standard residues stand in square brackets, D forms with d. Residues, ends and D or L forms follow the SMILES beside them. Chains are numbered I, II in the order given. TATA = O=C(CC[*:1])N1CN(C(=O)CC[*:2])CN(C(=O)CC[*:3])C1; X2 = O=C(CCOCCOCCOCCOCCOCCn1cc(CCC(=O)[*:2])nn1)[*:1]; Hyp = O=C(O)[C@@H]1C[C@@H](O)CN1; hArg = N=C(N)NCCCC[C@H](N)C(=O)O; tBuAla = CC(C)(C)C[C@H](N)C(=O)O; Nle = CCCC[C@H](N)C(=O)O

The target of this series is CD137 (Homo sapiens, UniProt Q07011). Briefly: CD137 reporter assay, co-culture with EphA2 tumour cells. Format: cell-based. Details: host or cells: Jurkat reporter cells. As to conditions: tumour target EphA2, co-culture with PC3, 6 h. As to the method: Culture medium referred to as R1 media is prepared by adding 1% FBS to RPMI-1640 (component of Promega kit CS196005). Serial dilutions of test articles in R1 are prepared in a sterile 96 well-plate. Use 25 μl per well of test articles or R1 (as a background control) to designated wells in white cell culture plate. Tumour cells* are harvested and resuspended at a concentration of 400,000 cells/mL in R1 media. Twenty five (25) μL/well tumour cells are used in white cell culture plate. Jurkat cells (Promega kit CS196005, 0.5 mL) are thawed in the water bath and then added to 5 ml pre-warmed R1 medium. Twenty five (25) μL/well Jurkat cells are used in white cell culture plate. Incubate the cells and test articles for 6h at 37° C., 5% CO2. At the end of 6 h, add 75 μl/well Bio-Glo™ (Promega) and incubate for 10 min before reading luminescence in a plate reader (Clariostar, BMG). The fold change relative to cells (Jurkat cells+Cell line used in co-culture) is calculated and plotted in GraphPad Prism as log(agonist) vs response to determine EC50 (nM) and Fold Induction over background (Max)
CD137, sequence (Q07011 24-255): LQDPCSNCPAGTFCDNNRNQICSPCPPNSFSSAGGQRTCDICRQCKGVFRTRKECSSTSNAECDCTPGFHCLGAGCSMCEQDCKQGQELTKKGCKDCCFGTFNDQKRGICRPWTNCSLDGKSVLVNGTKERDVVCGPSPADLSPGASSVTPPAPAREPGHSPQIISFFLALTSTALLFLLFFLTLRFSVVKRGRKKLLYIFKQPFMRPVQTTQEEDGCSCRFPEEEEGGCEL
As for `CCCC[C@@H]1NC(=O)[C@H](Cc2ccc(O)cc2)NC(=O)[C@@H]2CCCN2C(=O)[C@H](CC(=O)O)NC(=O)[C@H](C)NC(=O)[C@H](Cc2ccccc2)NC(=O)[C@@H]2CSCCC(=O)N3CN(CN(C3)C(=O)CCSC[C@@H](C(=O)N[C@@H](C)C(N)=O)NC1=O)C(=O)CCSC[C@H](NC(C)=O)C(=O)N[C@@H](CC(C)(C)C)C(=O)N1CCC[C@H]1C(=O)N[C@@H](CCCCNC(=O)CCOCCOCCOCCOCCOCCOCCOCCOCCOCCOCCOCCOCCn1cc(CCC(=O)NCCC(=O)N(C)CC(=O)N(C)CC(=O)N(C)CC(=O)N(C)CC(=O)N(C)CC(=O)N(C)CC(=O)N(C)CC(=O)N(C)CC(=O)N(C)CC(=O)N(C)CC(=O)N[C@@H](C)C(=O)N[C@@H](CCCCNC(=N)N)C(=O)N[C@@H](CC(=O)O)C(=O)N[C@H]3CSCCC(=O)N4CN5CN(C4)C(=O)CCSC[C@H](NC(=O)[C@H](CC(C)C)NC(=O)[C@@H]4CCCN4C(=O)[C@H](CC(N)=O)NC(=O)[C@H](C(C)C)NC(=O)[C@H](CC(C)C)NC(=O)[C@@H]4C[C@@H](O)CN4C3=O)C(=O)N[C@@H](CC(C)C)C(=O)N[C@@H](Cc3c[nH]cn3)C(=O)N3CCC[C@H]3C(=O)N[C@H](CC(=O)O)C(=O)N[C@@H](Cc3c[nH]c4ccccc34)C(=O)N[C@@H](CCCCNC(=N)N)C(=O)N[C@H](C(N)=O)CSCCC5=O)nn1)C(=O)N[C@H](C)C(=O)N1CCC[C@H]1C(=O)N[C@@H](Cc1ccc(O)cc1)C(=O)N2` [BCY10568], the “Fold Induction over Background” value worked out at 32 fold.
What is called EC50 is the midpoint of the concentration-response curve. A higher EC50 goes with a less potent agent. For `CCCC[C@@H]1NC(=O)[C@H](Cc2ccc(O)cc2)NC(=O)[C@@H]2CCCN2C(=O)[C@H](CC(=O)O)NC(=O)[C@H](C)NC(=O)[C@H](Cc2ccccc2)NC(=O)[C@@H]2CSCCC(=O)N3CN(CN(C3)C(=O)CCSC[C@@H](C(=O)N[C@@H](C)C(N)=O)NC1=O)C(=O)CCSC[C@H](NC(C)=O)C(=O)N[C@@H](CC(C)(C)C)C(=O)N1CCC[C@H]1C(=O)N[C@@H](CCC(=O)O)C(=O)N[C@H](CCCCNC(=O)CCOCCOCCOCCOCCOCCOCCOCCOCCOCCOCCOCCOCCn1cc(CCC(=O)NCCC(=O)N(C)CC(=O)N(C)CC(=O)N(C)CC(=O)N(C)CC(=O)N(C)CC(=O)N(C)CC(=O)N(C)CC(=O)N(C)CC(=O)N(C)CC(=O)N(C)CC(=O)N[C@@H](C)C(=O)N[C@@H](CCCCNC(=N)N)C(=O)N[C@@H](CC(=O)O)C(=O)N[C@H]3CSCCC(=O)N4CN5CN(C4)C(=O)CCSC[C@H](NC(=O)[C@H](CC(C)C)NC(=O)[C@@H]4CCCN4C(=O)[C@H](CC(N)=O)NC(=O)[C@H](C(C)C)NC(=O)[C@H](CC(C)C)NC(=O)[C@@H]4C[C@@H](O)CN4C3=O)C(=O)N[C@@H](CC(C)C)C(=O)N[C@@H](Cc3c[nH]cn3)C(=O)N3CCC[C@H]3C(=O)N[C@H](CC(=O)O)C(=O)N[C@@H](Cc3c[nH]c4ccccc34)C(=O)N[C@@H](CCCCNC(=N)N)C(=O)N[C@H](C(N)=O)CSCCC5=O)nn1)C(=O)N1CCC[C@H]1C(=O)N[C@@H](Cc1ccc(O)cc1)C(=O)N2` [BCY10570], the concentration for a half-maximal effect (EC50) was found to be 0.41 nM and the “Fold Induction over Background” value amounted to 38 fold.
With `CCCC[C@@H]1NC(=O)[C@H](Cc2ccc(O)cc2)NC(=O)[C@@H]2CCCN2C(=O)[C@H](CC(=O)O)NC(=O)[C@H](C)NC(=O)[C@H](Cc2ccccc2)NC(=O)[C@@H]2CSCCC(=O)N3CN(CN(C3)C(=O)CCSC[C@@H](C(=O)N[C@@H](C)C(N)=O)NC1=O)C(=O)CCSC[C@H](NC(C)=O)C(=O)N[C@@H](CC(C)(C)C)C(=O)N1CCC[C@H]1C(=O)N[C@@H](CCCCNC(=O)CCc1cn(CCOCCOCCOCCOCCOCCC(=O)N[C@@H](C)C(=O)N[C@@H](CCCCNC(=N)N)C(=O)N[C@@H](CC(=O)O)C(=O)N[C@H]3CSCCC(=O)N4CN5CN(C4)C(=O)CCSC[C@H](NC(=O)[C@H](CC(C)C)NC(=O)[C@@H]4CCCN4C(=O)[C@H](CC(N)=O)NC(=O)[C@H](C(C)C)NC(=O)[C@H](CC(C)C)NC(=O)[C@@H]4C[C@@H](O)CN4C3=O)C(=O)N[C@@H](CC(C)C)C(=O)N[C@@H](Cc3c[nH]cn3)C(=O)N3CCC[C@H]3C(=O)N[C@H](CC(=O)O)C(=O)N[C@@H](Cc3c[nH]c4ccccc34)C(=O)N[C@@H](CCCCNC(=N)N)C(=O)N[C@H](C(N)=O)CSCCC5=O)nn1)C(=O)N[C@H](C)C(=O)N1CCC[C@H]1C(=O)N[C@@H](Cc1ccc(O)cc1)C(=O)N2` [BCY10574] (I: A[hArg]DC[Hyp]LVNPLCLHP[dD]W[hArg]C-NH2 / II: Ac-C[tBuAla]PK[dA]PYCFADPY[Nle]CA-NH2; linker I:4-I:11-I:18, II:1-II:8-II:15 via TATA; linker I:N-II:4 via X2), the EC50 is 1 nM and the “Fold Induction over Background” value was found to be 32 fold.
On to `CCCC[C@@H]1NC(=O)[C@H](Cc2ccc(O)cc2)NC(=O)[C@@H]2CCCN2C(=O)[C@H](CC(=O)O)NC(=O)[C@H](C)NC(=O)[C@H](Cc2ccccc2)NC(=O)[C@@H]2CSCCC(=O)N3CN(CN(C3)C(=O)CCSC[C@@H](C(=O)N[C@@H](C)C(N)=O)NC1=O)C(=O)CCSC[C@H](NC(C)=O)C(=O)N[C@@H](CC(C)(C)C)C(=O)N1CCC[C@H]1C(=O)N[C@@H](CCC(=O)O)C(=O)N[C@H](CCCCNC(=O)CCc1cn(CCOCCOCCOCCOCCOCCC(=O)N[C@@H](C)C(=O)N[C@@H](CCCCNC(=N)N)C(=O)N[C@@H](CC(=O)O)C(=O)N[C@H]3CSCCC(=O)N4CN5CN(C4)C(=O)CCSC[C@H](NC(=O)[C@H](CC(C)C)NC(=O)[C@@H]4CCCN4C(=O)[C@H](CC(N)=O)NC(=O)[C@H](C(C)C)NC(=O)[C@H](CC(C)C)NC(=O)[C@@H]4C[C@@H](O)CN4C3=O)C(=O)N[C@@H](CC(C)C)C(=O)N[C@@H](Cc3c[nH]cn3)C(=O)N3CCC[C@H]3C(=O)N[C@H](CC(=O)O)C(=O)N[C@@H](Cc3c[nH]c4ccccc34)C(=O)N[C@@H](CCCCNC(=N)N)C(=O)N[C@H](C(N)=O)CSCCC5=O)nn1)C(=O)N1CCC[C@H]1C(=O)N[C@@H](Cc1ccc(O)cc1)C(=O)N2` [BCY10575] (I: A[hArg]DC[Hyp]LVNPLCLHP[dD]W[hArg]C-NH2 / II: Ac-C[tBuAla]PE[dK]PYCFADPY[Nle]CA-NH2; linker I:4-I:11-I:18, II:1-II:8-II:15 via TATA; linker I:N-II:5 via X2), for which the EC50 is 0.62 nM and the “Fold Induction over Background” value was found to be 38 fold.
As for `CCCC[C@@H]1NC(=O)[C@H](Cc2ccc(O)cc2)NC(=O)[C@@H]2CCCN2C(=O)[C@H](CC(=O)O)NC(=O)[C@H](C)NC(=O)[C@H](Cc2ccccc2)NC(=O)[C@@H]2CSCCC(=O)N3CN(CN(C3)C(=O)CCSC[C@@H](C(=O)N[C@@H](CNC(=O)CCc3cn(CCOCCOCCOCCOCCOCCC(=O)N[C@@H](C)C(=O)N[C@@H](CCCCNC(=N)N)C(=O)N[C@@H](CC(=O)O)C(=O)N[C@H]4CSCCC(=O)N5CN6CN(C5)C(=O)CCSC[C@H](NC(=O)[C@H](CC(C)C)NC(=O)[C@@H]5CCCN5C(=O)[C@H](CC(N)=O)NC(=O)[C@H](C(C)C)NC(=O)[C@H](CC(C)C)NC(=O)[C@@H]5C[C@@H](O)CN5C4=O)C(=O)N[C@@H](CC(C)C)C(=O)N[C@@H](Cc4c[nH]cn4)C(=O)N4CCC[C@H]4C(=O)N[C@H](CC(=O)O)C(=O)N[C@@H](Cc4c[nH]c5ccccc45)C(=O)N[C@@H](CCCCNC(=N)N)C(=O)N[C@H](C(N)=O)CSCCC6=O)nn3)C(N)=O)NC1=O)C(=O)CCSC[C@H](NC(C)=O)C(=O)N[C@@H](CC(C)(C)C)C(=O)N1CCC[C@H]1C(=O)N[C@@H](CCC(=O)O)C(=O)N[C@H](C)C(=O)N1CCC[C@H]1C(=O)N[C@@H](Cc1ccc(O)cc1)C(=O)N2` [BCY10576], the EC50 came to 0.51 nM and the “Fold Induction over Background” value was 38 fold.
For `CCCC[C@@H]1NC(=O)[C@H](Cc2ccc(O)cc2)NC(=O)[C@@H]2CCCN2C(=O)[C@H](CC(=O)O)NC(=O)[C@H](C)NC(=O)[C@H](Cc2ccccc2)NC(=O)[C@@H]2CSCCC(=O)N3CN(CN(C3)C(=O)CCSC[C@@H](C(=O)N[C@@H](CNC(=O)Cn3cc(CCC(=O)NCCC(=O)N(C)CC(=O)N(C)CC(=O)N(C)CC(=O)N(C)CC(=O)N(C)CC(=O)N(C)CC(=O)N(C)CC(=O)N(C)CC(=O)N(C)CC(=O)N(C)CC(=O)N[C@@H](C)C(=O)N[C@@H](CCCCNC(=N)N)C(=O)N[C@@H](CC(=O)O)C(=O)N[C@H]4CSCCC(=O)N5CN6CN(C5)C(=O)CCSC[C@H](NC(=O)[C@H](CC(C)C)NC(=O)[C@@H]5CCCN5C(=O)[C@H](CC(N)=O)NC(=O)[C@H](C(C)C)NC(=O)[C@H](CC(C)C)NC(=O)[C@@H]5C[C@@H](O)CN5C4=O)C(=O)N[C@@H](CC(C)C)C(=O)N[C@@H](Cc4c[nH]cn4)C(=O)N4CCC[C@H]4C(=O)N[C@H](CC(=O)O)C(=O)N[C@@H](Cc4c[nH]c5ccccc45)C(=O)N[C@@H](CCCCNC(=N)N)C(=O)N[C@H](C(N)=O)CSCCC6=O)nn3)C(N)=O)NC1=O)C(=O)CCSC[C@H](NC(C)=O)C(=O)N[C@@H](CC(C)(C)C)C(=O)N1CCC[C@H]1C(=O)N[C@@H](CCC(=O)O)C(=O)N[C@H](C)C(=O)N1CCC[C@H]1C(=O)N[C@@H](Cc1ccc(O)cc1)C(=O)N2` [BCY10577] the same measures were 0.28 nM and 37 fold.
